Where two headings read alike, the source gives them in different places.

One assay deals with EeAChE (Electrophorus electricus, UniProt O42275). Description: AChE inhibition assay. In kind it is biochemical. The settings on record: for AChE inhibition (% of inhibition): concentration not given.
A further assay concerns the target hBACE 1 (Homo sapiens, UniProt P56817). Description: BACE 1 inhibition assay. In kind it is biochemical.
Setting [1] is: read-out: eeAChE IC50 (μM) ± SD, Ellman assay, mean ± SD of three experiments.
[2] abbreviates: read-out: hBACE 1 IC50 (μM) ± SD, FRET assay, mean ± SD of three experiments.

EeAChE, sequence (O42275 24-633): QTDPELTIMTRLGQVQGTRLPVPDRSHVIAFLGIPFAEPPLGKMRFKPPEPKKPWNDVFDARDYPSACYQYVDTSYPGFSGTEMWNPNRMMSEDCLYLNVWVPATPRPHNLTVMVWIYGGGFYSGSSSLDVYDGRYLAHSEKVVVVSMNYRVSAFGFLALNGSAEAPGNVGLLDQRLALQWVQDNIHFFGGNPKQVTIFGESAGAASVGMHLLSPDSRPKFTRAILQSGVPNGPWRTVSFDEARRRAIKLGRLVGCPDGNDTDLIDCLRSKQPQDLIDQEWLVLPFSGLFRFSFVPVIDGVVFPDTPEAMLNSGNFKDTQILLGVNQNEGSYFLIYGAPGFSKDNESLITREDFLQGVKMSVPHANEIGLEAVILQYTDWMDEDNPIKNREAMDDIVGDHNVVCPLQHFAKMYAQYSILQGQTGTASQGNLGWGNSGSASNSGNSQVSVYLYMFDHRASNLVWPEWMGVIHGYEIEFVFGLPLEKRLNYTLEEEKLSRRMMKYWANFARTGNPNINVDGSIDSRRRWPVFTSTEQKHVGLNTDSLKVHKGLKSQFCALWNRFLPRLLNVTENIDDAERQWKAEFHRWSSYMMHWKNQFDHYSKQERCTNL
hBACE 1, sequence (P56817 46-501): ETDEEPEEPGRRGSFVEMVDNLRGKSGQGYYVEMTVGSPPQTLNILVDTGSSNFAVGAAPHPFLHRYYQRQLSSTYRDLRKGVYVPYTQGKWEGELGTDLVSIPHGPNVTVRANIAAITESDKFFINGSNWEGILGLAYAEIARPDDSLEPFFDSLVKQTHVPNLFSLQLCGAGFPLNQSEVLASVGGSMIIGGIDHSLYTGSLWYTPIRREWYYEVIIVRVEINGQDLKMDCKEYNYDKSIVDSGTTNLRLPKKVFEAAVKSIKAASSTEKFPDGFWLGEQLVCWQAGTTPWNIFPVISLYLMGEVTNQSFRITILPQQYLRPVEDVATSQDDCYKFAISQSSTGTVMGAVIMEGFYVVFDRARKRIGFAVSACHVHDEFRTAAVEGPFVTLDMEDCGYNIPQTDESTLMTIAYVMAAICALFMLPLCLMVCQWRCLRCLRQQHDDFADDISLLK

The term IC50 denotes the midpoint of a concentration-inhibition curve. `[H]/N=C(/N)NN=C(/C=C/c1ccccc1)c1cccn1Cc1cc(F)ccc1F` [Compound 2d, (Z)-2-((E)-1-(1-(2,5-Difluorobenzyl)-1H-pyrrol-2-yl)-3-phenylallylidene)hydrazine-1-carboximidamide]: the IC50 at EeAChE (setting [1]) stood at 153 ± 1.98 µM; at hBACE 1 (setting [2]), 107 ± 3.04 µM.
Take `[H]/N=C(/N)NN=C(/C=C/c1ccc(OC)cc1)c1cccn1Cc1ccccc1` [Compound 1f, (Z)-2-((E)-1-(1-Benzyl-1H-pyrrol-2-yl)-3-(4-methoxyphenyl)allylidene)hydrazine-1-carboximidamide]: the values for the half-inhibitory concentration (IC50) against EeAChE and against hBACE 1 were 139.1 ± 0.35 µM and 173 ± 1.06 µM, respectively.
For `[H]/N=C(/N)NN=C(/C=C/c1ccccc1)c1cccn1Cc1cc(Cl)ccc1Cl` [Compound 2e, (Z)-2-((E)-1-(1-(2,5-Dichlorobenzyl)-1H-pyrrol-2-yl)-3-phenylallylidene)hydrazine-1-carboximidamide] the same measures were 75.6 ± 3.09 µM and 178.2 ± 0.92 µM.
For the compound `[H]/N=C(/N)NN=C(/C=C/c1ccc(C(F)(F)F)cc1)c1cccn1Cc1ccc(CCCC)cc1` [Compound 3b, (Z)-2-((E)-1-(1-(4-Butylbenzyl)-1H-pyrrol-2-yl)-3-(4-(trifluoromethyl)phenyl)allylidene)hydrazine-1-carboximidamide], the IC50 at EeAChE (setting [1]) came to 57.4 ± 1.12 µM; at hBACE 1 (setting [2]), 204.6 ± 0.42 µM.
On to `[H]/N=C(/N)NN=C(/C=C/c1ccc(C(C)(C)C)cc1)c1cccn1Cc1ccc(C(F)(F)F)cc1` [Compound 3h, (Z)-2-((E)-3-(4-(tert-Butyl)phenyl)-1-(1-(4-(trifluoromethyl)benzyl)-1H-pyrrol-2-yl)allylidene)hydrazine-1-carboximidamide], for which the figures for the IC50 on EeAChE and against hBACE 1 were 71.17 ± 0.49 µM and 179 ± 2.26 µM, respectively.
The like results for `[H]/N=C(/N)NN=C(/C=C/c1ccccc1)c1cccn1Cc1ccc([N+](=O)[O-])cc1` [Compound 2l, (Z)-2-((E)-1-(1-(4-Nitrobenzyl)-1H-pyrrol-2-yl)-3-phenylallylidene)hydrazine-1-carboximidamide] were, in that order, 43.6 ± 0.66 µM and 193.35 ± 0.07 µM.
For `[H]/N=C(/N)NN=C(/C=C/c1ccc([N+](=O)[O-])cc1)c1cccn1Cc1ccccc1` [Compound 1c, (Z)-2-((E)-1-(1-Benzyl-1H-pyrrol-2-yl)-3-(4-nitrophenyl)allylidene)hydrazine-1-carboximidamide], the half-maximal inhibitory concentration (IC50) was found to be 43.25 ± 0.41 µM at EeAChE and 194.3 ± 0.99 µM against hBACE 1. Besides, the “AChE inhibition (% of inhibition)” value at EeAChE amounted to 38.07%.
For the compound `[H]/N=C(/N)NN=C(/C=C/c1cccc(OC)c1)c1cccn1Cc1ccccc1` [Compound 1i, (Z)-2-((E)-1-(1-Benzyl-1H-pyrrol-2-yl)-3-(3-methoxyphenyl)allylidene)hydrazine-1-carboximidamide], the half-maximal inhibitory concentration (IC50) came to 206.6 ± 0.49 µM against EeAChE and 134.1 ± 0.21 µM at hBACE 1.
As to `[H]/N=C(/N)NN=C(/C=C/c1ccc(Cl)cc1Cl)c1cccn1Cc1ccccc1` [Compound 1d, (Z)-2-((E)-1-(1-Benzyl-1H-pyrrol-2-yl)-3-(2,4-dichlorophenyl)allylidene)hydrazine-1-carboximidamide], on EeAChE, the IC50 amounted to 55.4 ± 0.91 µM and the “AChE inhibition (% of inhibition)” value was 26.75%. The IC50 on hBACE 1 amounted to 207.9 ± 1.91 µM.
With `[H]/N=C(/N)NN=C(/C=C/c1cc(OC)cc(OC)c1)c1cccn1Cc1ccc(C(C)(C)C)cc1` [Compound 3j, (Z)-2-((E)-1-(1-(4-(tert-Butyl)benzyl)-1H-pyrrol-2-yl)-3-(3,5-dimethoxyphenyl)allylidene)hydrazine-1-carboximidamide], the values for the concentration for half-maximal inhibition (IC50) against EeAChE and on hBACE 1 were 69.6 ± 1.51 µM and 177 ± 2.83 µM, respectively.

For the origin of these results see PMC11341970 (RSC Advances, 2024).
